Conditions: Liquid, Closed cell (Static) method

c1ccccc1 [benzene]
Conditions | vapor or sublimation pressure [kPa]
303.15 K | 15.63
313.15 K | 24.45
323.15 K | 36.6
333.15 K | 53.12
343.15 K | 74.82

c1ccsc1 [thiophene]
Conditions | vapor or sublimation pressure [kPa]
303.15 K | 13.29
308.15 K | 16.61
313.15 K | 20.59
318.15 K | 25.31
323.15 K | 30.87
328.15 K | 37.4
333.15 K | 44.98

Cc1ccccc1 [toluene]
Conditions | vapor or sublimation pressure [kPa]
323.16 K | 12.29
325.16 K | 13.37
327.15 K | 14.53
329.15 K | 15.77
332.15 K | 17.8
334.25 K | 19.35
337.65 K | 22.08
339.65 K | 23.83
342.3 K | 26.32
342.45 K | 26.47

O [water]
Conditions | vapor or sublimation pressure [kPa]
322.13 K | 11.12
329.07 K | 16.75
337.68 K | 24.18
341.81 K | 29.68
347.45 K | 37.91
350.9 K | 43.56
355.11 K | 51.68
358.38 K | 58.49
